“And” between values parts separate entries of the source, which are not always exact repeats. Equal values may be shown once. Toxic doses and inconclusive results are not listed.
Test system: L1210 leukemia ip in BDF1 mice, survival T/C
Test: NCI In Vivo Anticancer Drug Screen. Data for tumor model L1210 Leukemia (intraperitoneal) in B6D2F1 (BDF1) mice
Conditions: endpoint: mean survival time, higher = longer survival
Method in brief: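 Tumor cells were implanted, animals were treated, and survival was followed. The result divides the treated measurement by the vehicle-control measurement.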

[1] = dose: 200.0 mg/kg/injection, schedule: Q01DX001 (ip), vehicle: carboxymethylcellulose (CMC)
[2] = dose: 400.0 mg/kg/injection, schedule: Q01DX001 (ip), vehicle: carboxymethylcellulose (CMC)
[3] = dose: 50.0 mg/kg/injection, schedule: Q01DX001 (ip), vehicle: saline
[4] = dose: 100.0 mg/kg/injection, schedule: Q01DX001 (ip), vehicle: saline
[5] = dose: 200.0 mg/kg/injection, schedule: Q01DX001 (ip), vehicle: saline
[6] = dose: 400.0 mg/kg/injection, schedule: Q01DX001 (ip), vehicle: saline
[7] = dose: 100.0 mg/kg/injection, schedule: Q04DX002 (ip), vehicle: Klucel (hydroxypropylcellulose) (HPC)
[8] = dose: 50.0 mg/kg/injection, schedule: Q01DX009 (ip), vehicle: saline with Tween-80
[9] = dose: 50.0 mg/kg/injection, schedule: Q04DX003 (ip), vehicle: saline with Tween-80
[10] = dose: 100.0 mg/kg/injection, schedule: Q01DX009 (ip), vehicle: saline with Tween-80
[11] = dose: 100.0 mg/kg/injection, schedule: Q04DX003 (ip), vehicle: saline with Tween-80
[12] = dose: 100.0 mg/kg/injection, schedule: Q01DX001 (ip), vehicle: carboxymethylcellulose (CMC)

O=c1[nH]nc(Br)c(=O)n1C(c1ccccc1)c1ccccc1
T/C (dose: 22.0 mg/kg/injection, schedule: Q01DX015 (ip), vehicle: carboxymethylcellulose (CMC)): 89 % of control | T/C (dose: 33.0 mg/kg/injection, schedule: Q01DX015 (ip), vehicle: carboxymethylcellulose (CMC)): 97 % of control | T/C (dose: 44.0 mg/kg/injection, schedule: Q01DX001 (ip), vehicle: carboxymethylcellulose (CMC)): 97 % of control and 101 % of control | T/C (dose: 50.0 mg/kg/injection, schedule: Q01DX015 (ip), vehicle: carboxymethylcellulose (CMC)): 95 % of control | T/C (dose: 66.0 mg/kg/injection, schedule: Q01DX001 (ip), vehicle: carboxymethylcellulose (CMC)): 94 % of control and 98 % of control | T/C (dose: 75.0 mg/kg/injection, schedule: Q01DX015 (ip), vehicle: carboxymethylcellulose (CMC)): 97 % of control | T/C (dose: 150.0 mg/kg/injection, schedule: Q01DX001 (ip), vehicle: carboxymethylcellulose (CMC)): 95 % of control and 96 % of control | T/C [1]: 154 % of control | T/C [2]: 96 % of control

C/C(=C/CC1CCC2C3=CCC4CC(O)CCC4(C)C3CCC12C)C(C)C(C)C (stereo not drawn)
T/C (dose: 100.0 mg/kg/injection, schedule: Q01DX001 (ip), vehicle: Klucel (hydroxypropylcellulose) (HPC)): 102 % of control | T/C (dose: 200.0 mg/kg/injection, schedule: Q01DX001 (ip), vehicle: Klucel (hydroxypropylcellulose) (HPC)): 98 % of control | T/C (dose: 400.0 mg/kg/injection, schedule: Q01DX001 (ip), vehicle: Klucel (hydroxypropylcellulose) (HPC)): 88 % of control

Cc1cc[n+]2n1CC(O)C2 (stereo not drawn)
T/C [3]: 102 % of control | T/C [4]: 100 % of control | T/C [5]: 96 % of control | T/C [6]: 102 % of control

CC(OC(=O)c1ccccc1)C(N)=S (stereo not drawn)
T/C [4]: 102 % of control | T/C (dose: 100.0 mg/kg/injection, schedule: Q01DX009 (ip), vehicle: acetone): 93 % of control | T/C (dose: 100.0 mg/kg/injection, schedule: Q04DX003 (ip), vehicle: acetone): 101 % of control | T/C [5]: 93 % of control | T/C (dose: 200.0 mg/kg/injection, schedule: Q01DX009 (ip), vehicle: acetone): 95 % of control | T/C (dose: 200.0 mg/kg/injection, schedule: Q04DX003 (ip), vehicle: acetone): 102 % of control | T/C [6]: 103 % of control | T/C (dose: 400.0 mg/kg/injection, schedule: Q01DX009 (ip), vehicle: acetone): 96 % of control | T/C (dose: 400.0 mg/kg/injection, schedule: Q04DX003 (ip), vehicle: acetone): 102 % of control

NC(=O)N/N=C/C(=O)O
T/C [7]: 96 % of control | T/C (dose: 200.0 mg/kg/injection, schedule: Q04DX002 (ip), vehicle: Klucel (hydroxypropylcellulose) (HPC)): 104 % of control | T/C (dose: 400.0 mg/kg/injection, schedule: Q04DX002 (ip), vehicle: Klucel (hydroxypropylcellulose) (HPC)): 104 % of control

O=C(Nc1cc(C(F)(F)F)ccc1Cl)c1ccc(Cl)cc1Cl
T/C (dose: 100.0 mg/kg/injection, schedule: Q01DX009 (sc), vehicle: olive oil, sesame oil, peanut oil): 104 % of control | T/C (dose: 100.0 mg/kg/injection, schedule: Q04DX003 (sc), vehicle: olive oil, sesame oil, peanut oil): 106 % of control | T/C (dose: 200.0 mg/kg/injection, schedule: Q01DX009 (sc), vehicle: olive oil, sesame oil, peanut oil): 113 % of control | T/C (dose: 200.0 mg/kg/injection, schedule: Q04DX003 (sc), vehicle: olive oil, sesame oil, peanut oil): 101 % of control | T/C (dose: 400.0 mg/kg/injection, schedule: Q01DX009 (sc), vehicle: olive oil, sesame oil, peanut oil): 107 % of control | T/C (dose: 400.0 mg/kg/injection, schedule: Q04DX003 (sc), vehicle: olive oil, sesame oil, peanut oil): 101 % of control

O=C(CC(O)(C(F)(F)F)C(F)(F)F)c1cccs1
T/C [8]: 109 % of control | T/C [9]: 98 % of control | T/C [10]: 102 % of control | T/C [11]: 98 % of control | T/C (dose: 200.0 mg/kg/injection, schedule: Q04DX003 (ip), vehicle: saline with Tween-80): 96 % of control

c1ccc2c(c1)ccc1c3ccc4ccccc4c3[nH]c21
T/C [4]: 95 % of control | T/C [5]: 90 % of control | T/C [6]: 94 % of control

CCc1ccc(-n2cnc3c(=O)[nH]c(N)nc32)cc1
T/C (dose: 25.0 mg/kg/injection, schedule: Q01DX001 (ip), vehicle: saline with Tween-80): 86 % of control | T/C (dose: 50.0 mg/kg/injection, schedule: Q01DX001 (ip), vehicle: saline with Tween-80): 88 % of control | T/C (dose: 100.0 mg/kg/injection, schedule: Q01DX001 (ip), vehicle: saline with Tween-80): 91 % of control

O=C1c2ccccc2-c2c(I)cccc21
T/C (dose: 25.6 mg/kg/injection, schedule: Q04DX002 (ip), vehicle: saline with Tween-80): 94 % of control | T/C (dose: 64.0 mg/kg/injection, schedule: Q04DX002 (ip), vehicle: saline with Tween-80): 94 % of control | T/C (dose: 160.0 mg/kg/injection, schedule: Q04DX002 (ip), vehicle: saline with Tween-80): 98 % of control | T/C (dose: 400.0 mg/kg/injection, schedule: Q04DX002 (ip), vehicle: saline with Tween-80): 94 % of control

O=C(NO)c1ccc(F)cc1
T/C [12]: 103 % of control | T/C [1]: 97 % of control | T/C [2]: 92 % of control

Cc1c(C)c(C)c(CN2CCCC2)c(C)c1C
T/C (dose: 12.5 mg/kg/injection, schedule: Q01DX005 (ip), vehicle: Klucel (hydroxypropylcellulose) (HPC)): 107 % of control | T/C (dose: 12.5 mg/kg/injection, schedule: Q04DX002 (ip), vehicle: Klucel (hydroxypropylcellulose) (HPC)): 109 % of control | T/C (dose: 25.0 mg/kg/injection, schedule: Q01DX005 (ip), vehicle: Klucel (hydroxypropylcellulose) (HPC)): 97 % of control | T/C (dose: 25.0 mg/kg/injection, schedule: Q04DX002 (ip), vehicle: Klucel (hydroxypropylcellulose) (HPC)): 86 % of control | T/C (dose: 35.0 mg/kg/injection, schedule: Q01DX009 (ip), vehicle: Klucel (hydroxypropylcellulose) (HPC)): 90 % of control | T/C (dose: 50.0 mg/kg/injection, schedule: Q04DX002 (ip), vehicle: Klucel (hydroxypropylcellulose) (HPC)): 112 % of control | T/C [7]: 94 % of control

O=C(O)C12C3(Cl)C4(Cl)C(O)(O)C5(Cl)C3(Cl)C1(Cl)C5(Cl)C42Cl (stereo not drawn)
T/C [3]: 102 % of control | T/C [4]: 105 % of control | T/C [5]: 96 % of control | T/C [6]: 110 % of control

O=C(COc1ccccc1)Nc1ccc(Cl)cc1
T/C (dose: 100.0 mg/kg/injection, schedule: Q01DX009 (ip), vehicle: Klucel (hydroxypropylcellulose) (HPC)): 89 % of control | T/C (dose: 200.0 mg/kg/injection, schedule: Q01DX009 (ip), vehicle: Klucel (hydroxypropylcellulose) (HPC)): 95 % of control | T/C (dose: 400.0 mg/kg/injection, schedule: Q01DX009 (ip), vehicle: Klucel (hydroxypropylcellulose) (HPC)): 90 % of control

O=C1OC(=O)C2C1C1C=CC2C1(c1ccccc1)c1ccccc1 (stereo not drawn)
T/C [12]: 96 % of control | T/C [1]: 96 % of control | T/C [2]: 96 % of control

CCOC(=O)C(C)(c1c(C)n(C)c2ccccc12)c1c(C)n(C)c2ccccc12
T/C (dose: 50.0 mg/kg/injection, schedule: Q01DX001 (ip), vehicle: other): 91 % of control | T/C (dose: 100.0 mg/kg/injection, schedule: Q01DX001 (ip), vehicle: other): 91 % of control | T/C (dose: 200.0 mg/kg/injection, schedule: Q01DX001 (ip), vehicle: other): 91 % of control | T/C (dose: 400.0 mg/kg/injection, schedule: Q01DX001 (ip), vehicle: other): 91 % of control

CCCCN(CCCC)CC(C)O (stereo not drawn)
T/C (dose: 25.0 mg/kg/injection, schedule: Q01DX009 (ip), vehicle: saline with Tween-80): 101 % of control | T/C (dose: 25.0 mg/kg/injection, schedule: Q04DX003 (ip), vehicle: saline with Tween-80): 104 % of control | T/C [8]: 95 % of control | T/C [9]: 96 % of control | T/C [10]: 104 % of control | T/C [11]: 98 % of control and 101 % of control

Cc1cc(Nc2ccc(C)c(C)c2)nc(N)n1
T/C (dose: 100.0 mg/kg/injection, schedule: Q01DX Z (ip), vehicle: methylcellulose (MC)): 108 % of control

O=P1(CCc2ccccc2)CC(Br)C(Br)C1 (stereo not drawn)
T/C (dose: 100.0 mg/kg/injection, schedule: Q04DX003 (ip), vehicle: Klucel (hydroxypropylcellulose) (HPC)): 101 % of control | T/C (dose: 200.0 mg/kg/injection, schedule: Q04DX003 (ip), vehicle: Klucel (hydroxypropylcellulose) (HPC)): 106 % of control | T/C (dose: 400.0 mg/kg/injection, schedule: Q04DX003 (ip), vehicle: Klucel (hydroxypropylcellulose) (HPC)): 98 % of control

Source: PubChem BioAssay AID248 (DTP/NCI, 2004)
